Literature values as cited in US20140212515A1, “COMPOSITION AND METHODS FOR OPTIMIZING HEALTH OF CANCER PATIENTS BY THE ADMINISTRATION OF SODIUM SELENITE AND VITAMIN K3” (priority 2013, published 2014).

System: rat pancreatic cancer cells

SMILES: CC1=CC(=O)c2ccccc2C1=O [Menadione, 2-Methyl-1,4-Napthoquinone]
- proliferation of rat pancreatic cancer cells: inhibit the proliferation
